Experimental data published in patent publication US4400517A, “Phosphoric esters derived from 1,2,4-triazole having an insecticidal, nematocidal and acaricidal action, and their preparation” (priority 1976, dated 1983).
Where two headings read alike, the source gives them in different places.

What was measured:
[1] = Toxicity on albino rats by oral administration; conditions: rat, in vivo
Tetranychus urticae = assay: Biological activity on adults of Tetranychus urticae (Acari); format: in vivo
Protocol: (5) Biological activity on adults of Tetranychus urticae (Acari)
Discs of bean leaves were infested with adult acari and then sprinkled with an aqueous dispersion of the products under examination (see Tables 4 and 5).
The mortality percentage was determined after 24 hours from treatment (untreated leaf discs, mortality=0).

Hilemyia brassicae = assay: Biological activity on Hilemyia brassicae (Diptera); format: in vivo; conditions: Table 4
Protocol: (9) Biological activity on Hilemyia brassicae (Diptera)
Samples of soil were treated by uniform mixing with an aqueous dispersion of the products under examination (see Tables 4 and 5). The soil was then divided into two pots and in each of these 4 small radish plants were transplanted. The plants were subsequently infected by putting to the soil 50 Diptera eggs in the middle of the surface of the pots.
The results were recorded 10 days after treatment by extracting the plants from the soil and by counting the number of larvae present on the roots and on the surrounding soil.
The insecticidal activity was expressed as percentage of reduction of the infestation in comparison with the witness plants (plants transplanted into untreated soil, activity=0).

[2] = test system: Leptinotarsa decemlineata; assay: Biological activity on Leptinotarsa decemlineata (Coleoptera); format: in vivo
Protocol: (3) Biological activity on Leptinotarsa decemlineata (Coleoptera)
Small potato plants grown in pots were infested with 4-day old larvae, and were then sprinkled with an aqueous dispersion of the products under examination (see Tables 4 and 5).
The mortality percentage (untreated small plants=0) was determined after 48 hours from treatment.

Meloidogyne icognita = assay: Biological activity on Meloidogyne icognita (Nematoda); format: in vivo; conditions: 20 ppm; Table 4
Protocol: (8) Biological activity on Meloidogyne icognita (Nematoda)
A 1:1 mixture of field soil and sand, infested with newborne larvae and eggs of Nematoda, were treated, by uniform admixing, with an aqueous dispersion of the products under examination (see Tables 4 and 5). The soil was then distributed into plastic pots, and after 5 days in each pot there were planted 5 small tomato plants about 20 cm high.
The results were recorded 21 days after the transplanting.
The nematocidal activity was expressed as the percentage reduction of infestation with respect to the witness (small plants transplanted into a non-treated soil, activity=0).

Culex pipiens = assay: Biological activity on Culex pipiens larvae (Diptera); format: in vivo
Protocol: (4) Biological activity on Culex pipiens (Diptera)
Into glasses containing an aqueous dispersion of the products under examination (see Tables 4 and 5) there were introduced mosquito larvae of third and fourth age.
The mortality percentage of the larvae (glasses containing pure water=0) was determined after 24 hours from treatment.

Blatta orientalis = assay: Biological activity on Blatta orientalis (Ortoptera); format: in vivo; conditions: for % ge of activity, Blatta o.: Table 4, 2880 min
Method in brief: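 Ten neanides aged 80-100 days were exposed to glass crystallizer surfaces coated with acetone solution of compound for 24 h, then moved to untreated containers and fed. Mortality (untreated = 0) was scored 48 h after treatment began.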

[3] = test system: orthoptera, lepidoptera, coleoptera, diptera, nematoda and acari; assay: Comparison of the insecticidal, acaricidal and nematocidal activities; format: in vivo; conditions: M 8174 vs M 8172 (Table 4); Tables 4 and 5
Text: Of this material (M 8172) we have estimated the effects on various arthropods at decreasing doses, together with effects shown by a representative compound of the class described by us in this invention (M 8174).

Pieris brassicae = assay: Biological activity on Pieris brassicae (Lepidoptera); format: in vivo; conditions: 48 h, Table 5, read-out: Activity (mortality class), Pieris B.
Protocol: (2) Biological activity on Pieris brassicae (Lepidotera)
Cut-off cauliflower leaves were sprinkled with an aqueous dispersion of the products under examination (see TABLE 5).
After drying, the leaves were infested with 5-day old larvae. The percentage of mortality of the larvae (untreated leaves=0) was determined after 48 hours from treatment.

Spodoptera littoralis = assay: Biological activity on Spodoptera littoralis (Lepidoptera); format: in vivo
Protocol: (7) Biological activity on Spodoptera littoralis (Lepidoptera)
Cut tobacco leaves were sprinkled with an aqueous dispersion of the products under examination (see Tables 4 and 5).
After drying, the leaves were infested with 5-day old larvae.
The percentage of mortality of the larvae was determined after 48 hours from treatment (untreated leaves, mortality=0).

CCOP(=S)(OCC)Oc1nc(C=C(Cl)Cl)nn1C [M 8174]
LD50 [1]: 1600 mg/kg
mortality at 0.001 % (Tetranychus urticae; 24 h, 0,01%o, Table 4, read-out: % ge of activity, Tetranycus u. (ad.)): 100%
mortality at 0.001 % (Tetranychus urticae; 24 h, 0.01%o, Table 5, read-out: Activity (mortality class), Tetranychus U. (adults)): 100%
mortality at 0.1 % (Tetranychus urticae; 24 h, 1%o, Table 5, read-out: Activity (mortality class), Tetranychus U. (adults)): 100%
mortality at 0.0005 % (Tetranychus urticae; 24 h, 0,005%o, Table 4, read-out: % ge of activity, Tetranycus u. (ad.)): 100%
% ge of activity, Hylemyia b. (Hilemyia brassicae; 2 ppm): 100%
% ge of activity, Hylemyia b. (Hilemyia brassicae; 10 ppm): 100%
mortality at 0.01 % ([2]; 48 h, 0,1%o, Table 4, read-out: % ge of activity, Leptinotarsa d.): 100%
mortality at 0.005 % ([2]; 48 h, 0,05%o, Table 4, read-out: % ge of activity, Leptinotarsa d.): 100%
mortality at 0.005 % ([2]; 48 h, 0.05%o, Table 5, read-out: Activity (mortality class), Leptinotarsa D.): 100%
mortality at 0.1 % ([2]; 48 h, 1%o, Table 5, read-out: Activity (mortality class), Leptinotarsa D.): 100%
% ge of activity, Meloidogyne i. (Meloidogyne icognita): 100%
mortality at 0.02 ppm (Culex pipiens; 24 h, 0,02 ppm, Table 4, read-out: % ge of activity, Culex p.): 100%
mortality at 0.2 ppm (Culex pipiens; 24 h, 0,2 ppm, Table 4, read-out: % ge of activity, Culex p.): 100%
mortality at 0.02 ppm (Culex pipiens; 24 h, 0.02 ppm, Table 5, read-out: Activity (mortality class), Culex P. (larvae)): 100%
mortality at 2 ppm (Culex pipiens; 24 h, 2 ppm, Table 5, read-out: Activity (mortality class), Culex P. (larvae)): 100%
% ge of activity, Blatta o. (Blatta orientalis; 0,01 g/m^2): 100%
% ge of activity, Blatta o. (Blatta orientalis; 0,1 g/m^2): 100%
mortality at 0.01 g/m2 (Blatta orientalis; Blatta orientalis, 48 h, 0,01 g/m^2, Table 5, read-out: Activity (mortality class), Blatta O.): 100%
mortality at 1 g/m2 (Blatta orientalis; Blatta orientalis, 48 h, 1 g/m^2, Table 5, read-out: Activity (mortality class), Blatta O.): 100%
activity in words [3]: significantly better activity
mortality at 0.001 % (Pieris brassicae; 0.01%o): 100%
mortality at 0.1 % (Pieris brassicae; 1%o): 100%
mortality at 0.01 % (Spodoptera littoralis; 48 h, 0,1%o, Table 4, read-out: % ge of activity, Spodoptera l.): 100%
mortality at 0.005 % (Spodoptera littoralis; 48 h, 0,05%o, Table 4, read-out: % ge of activity, Spodoptera l.): 90%
mortality at 0.005 % (Spodoptera littoralis; 48 h, 0.05%o, Table 5, read-out: Activity (mortality class), Spodoptera L.): 100%
mortality at 0.1 % (Spodoptera littoralis; 48 h, 1%o, Table 5, read-out: Activity (mortality class), Spodoptera L.): 100%
